“Also recorded” adds a separate entry of the source.
Key:
[1] = Particle size, zeta-potential (dynamic light scattering) and TEM of NRTOCl dispersion and emulsions; type: physicochemical
Method: The particle size distribution, mean particle diameter (Zeta average size) and zeta-potential of NRTOCl in DI water were measured by using a commercial dynamic light-scattering device (Nano-ZS, Malvern Instruments, Worcestershire, UK). Tecnai F20 TEM/STEM transmission electron microscope (200 kV) was used for characterizing the structure and morphology of prepared NRTOCl nanoparticles. Although NRTOCl is a quaternary ammonium salt, it was not dissolved in water due to the existence of three groups of oleate fatty ester in its structure. Therefore, for the stability study of NRTOCl, this compound was dispersed in DI water using 1% ethanol as a cosolvent. For this purpose, 15 mg of NRTOCl was dissolved in 0.15 ml of ethanol (1%) and then 14.85 ml of DI water was added to the mixture and gently shaken. […] Although the average size of NRTOCl in this sample was 192 nm, the images of TEM disclosed smaller particles with around 50 nm and oval and spherical shapes with aspect ratio close to unity (FIGS. 10A-10C). In the nanoparticles, the NRTOCl structures are stacked on top of each other layer-by-layer. The highly positive charge of NRTO makes the nanoparticles stable in the aqueous phase. […] The total oil phase in these emulsions were 3.2 wt. %, and the concentration of NRTOCl in total volume of each emulsion (15 mL) was 4.4 mM. In the emulsions that used Na-caseinate as an emulsifier, NaN3 (0.01 wt. %) was added to prevent the growth of bacteria. […] An NRTO in canola oil-in-water emulsion was also prepared, using 2 wt. % Tween 80 as an emulsifier in DI water (Tween emulsion). […] As expected by using Tween 80 as a neutral emulsifier, the positive charge of NRTO droplets was almost intact in the emulsion.

[2] = test system: porcine pancreatin
Method: In vitro digestion of NRTOCl in pure form and dissolved in MCT oil was investigated in the following procedures.
The buffer for simulated intestinal phase was prepared according to the following protocol.^29 Specifically, 60 mg of NRTOCl was dissolved in 0.3 mL ethanol and added to 10 g of a buffer solution containing 400 mg bile bovine. 0.75 mL of a CaCl2 solution (0.3 M) was added to this mixture, and the pH was adjusted around 7 by using HCl (1 M). Then, 400 mg of fresh porcine pancreatin was dispersed in 4 mL of buffer solution and added to the mixture. The sample was placed in an incubator (250 rpm) at 37°° C. for 30 minutes. Subsequently, the sample was taken out of the incubator to adjust the pH to around 7 and returned to the incubator for another 30 minutes. The incubation steps and adjusting pH were repeated every 30 minutes until 2 hours were over. For quenching the enzyme, the sample was placed in an ice bath, and then 1.5 mL of the sample was centrifuged at 14,000 rpm for 10 minutes. Finally, the aqueous phase was separated and filtered by a 0.22 μm filter for determination of released NR and nicotinamide.
60 mg of NRTOCl was dissolved in 150 mg of MCT oil to prepare 29% w/w NRTO in MCT oil. Aqueous phase was 10 g of the buffer solution containing 400 mg bile bovine. The oil phase was added to the aqueous phase and homogenized at […] for 150 seconds at room temperature. 0.75 mL of a CaCl2 solution (0.3 M) was added to this mixture, and the pH was adjusted around 7 by using HCl (1 M). Then, 400 mg of fresh porcine pancreatin was dispersed in 5 mL of buffer solution and added to the mixture. The sample was placed in an incubator (250 rpm) at 37° C. for 30 minutes. Then, the sample was taken out of the incubator to adjust the pH to around 7 (by NaOH 1 M) and returned to the incubator for another 30 minutes. The incubating and adjusting pH steps were repeated every 30 minutes until 2 hours were over. For quenching the enzyme, the sample was placed in an ice bath and then 1.5 mL of the sample was centrifuged at 14000 rpm for 10 min. Finally, the aqueous phase was separated and filtered by a 0.22 μm filter for determination of released NR and nicotinamide.
After the NRTOCl stability study in different conditions, the digestibility of this compound to produce NR in simulated intestinal fluid was studied. This enzymatic digestion used porcine pancreatin, bile bovine, and a buffer solution at pH around 7.^29 The lipase enzyme in porcine pancreatin can hydrolyze the fatty ester groups to produce NR, NRDO (nicotinamide riboside dioleates), NRMO (nicotinamide riboside monoleate) and oleic acid as the main products of digestion (FIG. 16). Moreover, nicotinamide (NAM) and ribose-trioleates (RTO) can be formed as the products of hydrolysis of NRTO not digestion. By considering this hypothesis, the NRTO digestion was studied in simulated intestinal phase.
At first, the digestion study was followed by dissolving pure NRTOCl (60 mg) in 0.3 mL of ethanol, and then this solution was added to 10 mL of buffer solution containing 400 mg of bile bovine to disperse NRTO in bile bovine solution. After that, 0.75 mL of CaCl2 solution (0.3M) was added to this mixture, and the pH was adjusted to 7.0 by adding HCl (1 M). […] The released NR and nicotinamide from the sample was measured by LC-MS and HPLC analyses.

[3] = Solubility of NRTOCl in water and in canola, corn and MCT oil; type: physicochemical
Method: 2154 mg of canola oil was added to a 15 mL falcon tube containing 380 mg of NRTOCl. Then, the tube was placed in a water bath and was shaken at around 35° C. until NRTOCl was completely dissolved in canola oil. After dissolving NRTOCl in canola oil, the sample was kept at room temperature for the next studies. […] Although NRTOCl is a quaternary ammonium salt, it was not dissolved in water due to the existence of three groups of oleate fatty ester in its structure. Therefore, for the stability study of NRTOCl, this compound was dispersed in DI water using 1% ethanol as a cosolvent. For this purpose, 15 mg of NRTOCl was dissolved in 0.15 ml of ethanol (1%) and then 14.85 ml of DI water was added to the mixture and gently shaken. […] Although the average size of NRTOCl in this sample was 192 nm, the images of TEM disclosed smaller particles with around 50 nm and oval and spherical shapes with aspect ratio close to unity (FIGS. 10A-10C). In the nanoparticles, the NRTOCl structures are stacked on top of each other layer-by-layer. The highly positive charge of NRTO makes the nanoparticles stable in the aqueous phase.

[4] = NRTOCl dispersed in DI water with 1% ethanol, 1,000 ppm

With `CCCCCCCC/C=C\CCCCCCCC(=O)OC[C@H]1O[C@@H]([n+]2cccc(C(N)=O)c2)[C@H](OC(=O)CCCCCCC/C=C\CCCCCCCC)[C@@H]1OC(=O)CCCCCCC/C=C\CCCCCCCC.[Cl-]` [NRTOCl, nicotinamide riboside trioleates chloride] the “particle size (average size)” value [1, 4] was 192 nm, the zeta potential [1, 4] was “+65 mV” and the “particle size by TEM” value ([1]; NRTOCl dispersed in DI water, TEM images) was “around 50 nm”. For the same compound, the NRTO completely digested [2] was “at least 27.5%”, the “digestibility to release NR” value [2] was “digestible” and the “nicotinamide detected (N-glycosidic bond hydrolysis) during digestion” value [2] was 3.9%. The “nicotinamide measured (N-glycosidic bond hydrolysis) during digestion” value [2] was 2.4%, the “ribose-trioleates formed during digestion” value [2] was 2.4% and the “appearance of 15 wt. % solution in canola oil during storage” value ([3]; 15 wt. % NRTOCl in canola oil, room temperature) was “stable and clear without any sediment”. For the same compound, the “solubility in canola oil” value ([3]; canola oil) was “easily dissolved”, the “solubility in canola, corn and MCT oil” value ([3]; room temperature) was “easily dissolved” and the solubility in water ([3]; water) was “not soluble in water; also recorded: not dissolved; also recorded: water insoluble”.

Source: patent US20240424010A1, “NICOTINAMIDE RIBOSIDE TRIOLEATES CHLORIDE, COMPOSITIONS CONTAINING THIS COMPOUND, AND METHODS OF MAKING AND USING THIS COMPOUND” (SOCIETE DES PRODUITS NESTLE S.A., priority 2021, published 2024)
